Test results as given in patent US20230079819A1, “COMPOUNDS AND USES THEREOF” (Foghorn Therapeutics Inc., priority 2019, published 2023).
Where two headings read alike, the source gives them in different places.

Assays:
[1] = target: T1, BRG-1 (Homo sapiens, UniProt P51532); assay: ATPase catalytic activity of BRG-1, ADP-Glo in vitro biochemical assay; conditions: ATPase catalytic activity, 30 nM BRG-1, 400 μM ATP
T1 construct: made in house; host or cells: High Five insect cells

[2] = target: T2, BRM (Homo sapiens, UniProt P51531); assay: ATPase catalytic activity of BRM, ADP-Glo in vitro biochemical assay; conditions: ATPase catalytic activity, 30 nM BRM, 400 μM ATP
T2 construct: made in house; host or cells: High Five insect cells
T2 sequence (P51531 whole entry): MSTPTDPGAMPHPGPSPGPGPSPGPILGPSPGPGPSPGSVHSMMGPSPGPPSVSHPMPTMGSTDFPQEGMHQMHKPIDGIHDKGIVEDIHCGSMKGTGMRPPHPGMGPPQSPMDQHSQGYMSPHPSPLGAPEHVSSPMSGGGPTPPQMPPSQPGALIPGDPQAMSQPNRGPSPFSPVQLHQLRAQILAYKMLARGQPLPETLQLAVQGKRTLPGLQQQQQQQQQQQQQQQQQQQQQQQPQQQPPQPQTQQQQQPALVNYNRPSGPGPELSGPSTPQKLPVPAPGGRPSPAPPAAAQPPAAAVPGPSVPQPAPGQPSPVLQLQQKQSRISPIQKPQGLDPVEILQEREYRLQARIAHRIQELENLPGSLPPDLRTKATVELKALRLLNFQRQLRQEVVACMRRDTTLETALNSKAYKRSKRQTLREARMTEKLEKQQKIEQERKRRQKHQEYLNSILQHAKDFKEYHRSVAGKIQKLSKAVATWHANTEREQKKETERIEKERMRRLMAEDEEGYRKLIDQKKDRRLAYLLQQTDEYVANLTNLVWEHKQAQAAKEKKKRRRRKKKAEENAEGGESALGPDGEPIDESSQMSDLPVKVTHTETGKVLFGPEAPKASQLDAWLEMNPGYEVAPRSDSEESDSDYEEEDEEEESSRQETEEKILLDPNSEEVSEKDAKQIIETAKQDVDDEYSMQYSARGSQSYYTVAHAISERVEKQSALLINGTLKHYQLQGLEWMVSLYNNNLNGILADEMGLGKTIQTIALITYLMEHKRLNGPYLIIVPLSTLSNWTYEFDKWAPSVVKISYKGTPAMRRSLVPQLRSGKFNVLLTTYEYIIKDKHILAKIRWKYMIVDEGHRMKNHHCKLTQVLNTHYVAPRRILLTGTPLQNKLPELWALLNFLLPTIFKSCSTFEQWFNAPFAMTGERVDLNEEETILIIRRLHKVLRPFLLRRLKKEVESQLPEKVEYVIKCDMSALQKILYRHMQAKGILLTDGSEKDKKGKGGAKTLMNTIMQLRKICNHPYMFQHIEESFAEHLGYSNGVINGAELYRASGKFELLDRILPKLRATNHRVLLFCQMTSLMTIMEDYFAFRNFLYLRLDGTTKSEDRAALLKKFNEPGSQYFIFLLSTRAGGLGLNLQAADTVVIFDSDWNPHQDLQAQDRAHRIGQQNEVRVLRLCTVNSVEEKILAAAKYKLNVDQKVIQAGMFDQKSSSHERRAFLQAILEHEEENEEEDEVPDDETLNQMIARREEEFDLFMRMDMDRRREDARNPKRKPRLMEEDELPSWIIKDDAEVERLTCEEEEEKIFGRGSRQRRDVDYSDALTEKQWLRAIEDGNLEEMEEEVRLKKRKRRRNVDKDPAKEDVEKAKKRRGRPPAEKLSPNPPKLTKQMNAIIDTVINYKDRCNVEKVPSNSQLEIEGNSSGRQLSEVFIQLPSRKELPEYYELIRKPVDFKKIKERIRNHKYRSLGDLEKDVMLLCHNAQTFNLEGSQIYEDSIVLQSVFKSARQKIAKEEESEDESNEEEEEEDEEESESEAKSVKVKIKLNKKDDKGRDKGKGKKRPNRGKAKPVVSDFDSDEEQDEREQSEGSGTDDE

T1 sequence (P51532 whole entry): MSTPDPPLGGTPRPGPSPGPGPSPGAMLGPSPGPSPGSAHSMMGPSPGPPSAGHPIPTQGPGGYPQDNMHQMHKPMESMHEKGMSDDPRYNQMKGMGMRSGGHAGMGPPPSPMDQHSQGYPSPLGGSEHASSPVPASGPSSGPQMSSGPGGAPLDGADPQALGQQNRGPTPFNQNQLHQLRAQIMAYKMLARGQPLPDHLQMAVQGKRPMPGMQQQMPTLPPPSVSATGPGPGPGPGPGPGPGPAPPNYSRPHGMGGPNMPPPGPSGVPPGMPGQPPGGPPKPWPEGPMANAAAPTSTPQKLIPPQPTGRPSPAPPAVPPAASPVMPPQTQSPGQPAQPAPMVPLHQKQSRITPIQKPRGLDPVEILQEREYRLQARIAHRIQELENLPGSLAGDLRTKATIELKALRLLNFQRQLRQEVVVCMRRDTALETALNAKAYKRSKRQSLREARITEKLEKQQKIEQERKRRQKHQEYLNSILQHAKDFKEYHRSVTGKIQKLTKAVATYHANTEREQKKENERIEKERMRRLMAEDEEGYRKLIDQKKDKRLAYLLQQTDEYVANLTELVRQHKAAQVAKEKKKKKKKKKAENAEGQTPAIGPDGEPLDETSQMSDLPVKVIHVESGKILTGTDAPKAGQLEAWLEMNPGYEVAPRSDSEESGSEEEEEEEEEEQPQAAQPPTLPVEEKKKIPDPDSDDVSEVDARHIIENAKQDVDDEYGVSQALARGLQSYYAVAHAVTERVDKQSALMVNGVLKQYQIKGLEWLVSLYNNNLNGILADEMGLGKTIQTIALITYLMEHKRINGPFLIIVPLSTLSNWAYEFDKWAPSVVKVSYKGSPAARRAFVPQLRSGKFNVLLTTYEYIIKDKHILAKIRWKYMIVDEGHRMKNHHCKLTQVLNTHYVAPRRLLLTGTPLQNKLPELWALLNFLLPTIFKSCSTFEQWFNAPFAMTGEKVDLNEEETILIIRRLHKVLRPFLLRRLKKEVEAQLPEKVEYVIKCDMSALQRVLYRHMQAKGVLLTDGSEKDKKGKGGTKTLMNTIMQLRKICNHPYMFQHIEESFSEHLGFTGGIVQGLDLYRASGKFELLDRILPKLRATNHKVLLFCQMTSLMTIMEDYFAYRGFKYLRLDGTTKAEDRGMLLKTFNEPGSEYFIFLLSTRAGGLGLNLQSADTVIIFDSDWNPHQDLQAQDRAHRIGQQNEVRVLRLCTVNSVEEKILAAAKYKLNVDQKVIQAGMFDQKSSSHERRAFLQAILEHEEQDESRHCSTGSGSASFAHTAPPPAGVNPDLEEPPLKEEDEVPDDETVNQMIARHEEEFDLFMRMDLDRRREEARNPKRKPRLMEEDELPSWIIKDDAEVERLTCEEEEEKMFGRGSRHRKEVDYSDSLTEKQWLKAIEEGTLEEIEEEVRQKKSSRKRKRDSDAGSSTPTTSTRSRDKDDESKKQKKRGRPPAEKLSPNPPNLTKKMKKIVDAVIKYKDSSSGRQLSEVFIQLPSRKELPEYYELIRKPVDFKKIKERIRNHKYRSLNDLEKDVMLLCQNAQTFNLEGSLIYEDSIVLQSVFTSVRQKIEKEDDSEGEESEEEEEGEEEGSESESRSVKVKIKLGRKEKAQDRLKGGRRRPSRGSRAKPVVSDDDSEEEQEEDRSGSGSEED

Structure (SMILES)	IC50 ([1]; read-out: BRG1 IP50 (μM)*) [µM]	IC50 ([2]; read-out: BRM IP50 (μM)*) [µM]	IC50 ([1]; read-out: BRG1 IP50) [µM]	IC50 ([2]; read-out: BRM IP50) [µM]
CN(CC(=O)O)c1cc(-c2cccc(-c3csc(NC(=O)CNC(=O)c4ccn(S(C)(=O)=O)c4)n3)c2)ccn1 [Compound 15, 2-(methyl(4-(3-(2-(2-(1-(methylsulfonyl)-1H-pyrrole-3-carboxamido)acetamido)thiazol-4-yl)phenyl)pyridin-2-yl)amino)acetic acid]	< 0.01	< 0.01	–	–
CC1(C)CN(c2cccc(-c3csc(NC(=O)CNC(=O)c4ccn(S(C)(=O)=O)c4)n3)c2)CC(C)(C)O1 [Compound 203]	> 0.01	> 0.01	–	–
CN(C)CCN(C)c1cc(-c2cccc(-c3csc(NC(=O)CNC(=O)c4ccn(S(C)(=O)=O)c4)n3)c2)ccn1 [Compound 21, N-(2-((4-(3-(2-((2-(dimethylamino)ethyl)(methyl)amino)pyridin-4-yl)phenyl)thiazol-2-yl)amino)-2-oxoethyl)-1-(methylsulfonyl)-1H-pyrrole-3-carboxamide]	> 0.01	> 0.01	–	–
COC(C)(C)Cn1ccc(-c2cccc(-c3csc(NC(=O)CNC(=O)c4ccn(C(C)(C)C)c4)n3)c2)n1 [Compound 25, 1-(tert-butyl)-N-(2-((4-(3-(1-(2-methoxy-2-methylpropyl)-1H-pyrazol-3-yl)phenyl)thiazol-2-yl)amino)-2-oxoethyl)-1H-pyrrole-3-carboxamide]	> 0.1	> 0.01	–	–
COCCOC1CN(c2cccc(-c3csc(NC(=O)CNC(=O)c4ccn(S(C)(=O)=O)c4)n3)c2)C1 [Compound 184]	> 0.01	> 0.01	–	–
CC1(C)OCC12CN(c1cccc(-c3csc(NC(=O)CNC(=O)c4ccn(S(C)(=O)=O)c4)n3)c1)C2 [Compound 157]	> 0.1	> 0.1	–	–
CC(C)(C)n1ccc(C(=O)NCC(=O)Nc2nc(-c3cccc(COC4CCOC4)c3)cs2)c1 (centres unmarked) [Compound 129, 1-(tert-butyl)-N-(2-oxo-2-((4-(3-(((tetrahydrofuran-3-yl)oxy)methyl)phenyl)thiazol-2-yl)amino)ethyl)-1H-pyrrole-3-carboxamide]	> 0.01	> 0.01	–	–
NCCS(=O)(=O)n1ccc(C(=O)NCC(=O)Nc2nc(-c3cccc(-c4ccncc4)c3)cs2)c1 [Compound 40, 1-((2-aminoethyl)sulfonyl)-N-(2-oxo-2-((4-(3-(pyridin-4-yl)phenyl)thiazol-2-yl)amino)ethyl)-1H-pyrrole-3-carboxamide]	> 0.01	> 0.01	–	–
CS(=O)(=O)n1ccc(C(=O)NCC(=O)Nc2nc(-c3c[nH]c(-c4ccncc4)n3)cs2)c1 [Compound 146, 1-(methylsulfonyl)-N-(2-oxo-2-((4-(2-(pyridin-4-yl)-1H-imidazol-4-yl)thiazol-2-yl)amino)ethyl)-1H-pyrrole-3-carboxamide]	> 1	> 1	–	–
CC(C)S(=O)(=O)n1ccc(C(=O)NCC(=O)Nc2nc(-c3cccc(-c4ccncc4)c3)cs2)c1 [Compound 43, 1-isopropylsulfonyl-N-[2-oxo-2-[[4-[3-(4-pyridyl)phenyl]thiazol-2-yl]amino]ethyl]pyrrole-3-carboxamide]	> 0.01	> 0.01	–	–
CN1CCn2nc(-c3cccc(-c4csc(NC(=O)CNC(=O)c5ccn(C(C)(C)C)c5)n4)c3)cc2C1 [Compound 143, 1-(tert-butyl)-N-(2-((4-(3-(5-methyl-4,5,6,7-tetrahydropyrazolo[1,5-a]pyrazin-2-yl)phenyl)thiazol-2-yl)amino)-2-oxoethyl)-1H-pyrrole-3-carboxamide]	> 0.1	> 0.1	–	–
Cn1ccc2ccc(-c3csc(NC(=O)CNC(=O)c4ccn(S(C)(=O)=O)c4)n3)cc2c1=O [Compound 112, N-(2-((4-(2-methyl-1-oxo-1,2-dihydroisoquinolin-7-yl)thiazol-2-yl)amino)-2-oxoethyl)-1-(methylsulfonyl)-1H-pyrrole-3-carboxamide]	< 0.01	< 0.01	–	–
CN1Cc2ccc(-c3csc(NC(=O)CNC(=O)c4ccn(S(C)(=O)=O)c4)n3)cc2CC1=O [Compound 109, N-(2-((4-(2-methyl-3-oxo-1,2,3,4-tetrahydroisoquinolin-6-yl)thiazol-2-yl)amino)-2-oxoethyl)-1-(methylsulfonyl)-1H-pyrrole-3-carboxamide]	> 0.01	> 0.01	–	–

Results, then the compound that gave them:

IC50 ([1]; read-out: BRG1 IP50 (μM)*) [µM]	IC50 ([2]; read-out: BRM IP50 (μM)*) [µM]	IC50 ([1]; read-out: BRG1 IP50) [µM]	IC50 ([2]; read-out: BRM IP50) [µM]	Structure (SMILES)
–	–	> 0.01	> 0.01	CS(=O)(=O)n1ccc(C(=O)NCC(=O)Nc2nc(-c3cc(Cl)cc(C#N)c3)cs2)c1 [Compound 722]
–	–	> 0.1	> 0.01	COC[C@H](NC(=O)c1ccn(S(C)(=O)=O)c1)C(=O)Nc1nc(-c2cc(Cl)c3c(c2)OCO3)cs1 [Compound 617]
> 0.1	> 0.1	–	–	COC(C)(C)C#Cc1cccc(-c2csc(NC(=O)CNC(=O)c3ccn(C(C)(C)C)c3)n2)n1 [Compound 362, 1-(tert-butyl)-N-(2-((4-(6-(3-methoxy-3-methylbut-1-yn-1-yl)pyridin-2-yl)thiazol-2-yl)amino)-2-oxoethyl)-1H-pyrrole-3-carboxamide]
–	–	> 0.01	> 0.01	CS(=O)(=O)n1ccc(C(=O)NCC(=O)Nc2nc(-c3cccc(-c4ccnc(CC(=O)O)c4)c3)cs2)c1 [Compound 421, Sodium 2-(4-(3-(2-(2-(1-(methylsulfonyl)-1H-pyrrole-3-carboxamido)acetamido)thiazol-4-yl)phenyl)pyridin-2-yl)acetate]
> 0.01	> 0.01	–	–	COC[C@@H]1CCCN(c2cccc(-c3csc(NC(=O)CNC(=O)c4ccn(S(C)(=O)=O)c4)n3)c2)C1 [Compound 244]
> 0.01	> 0.01	–	–	Cn1ncc(-c2cccc(-c3csc(NC(=O)CNC(=O)c4ccn(C(C)(C)C)c4)n3)n2)n1 [Compound 382, 1-tert-butyl-N-[2-[[4-[6-(2-methyltriazol-4-yl)-2-pyridyl]thiazol-2-yl]amino]-2-oxo-ethyl]pyrrole-3-carboxamide]
–	–	> 0.01	> 0.01	C[C@H]1Cc2ccc(-c3csc(NC(=O)CNC(=O)c4ccn(S(C)(=O)=O)c4)n3)cc2O1 [Compound 527]
–	–	< 0.01	< 0.01	CC(=O)NCCOc1cc(-c2cccc(-c3csc(NC(=O)CNC(=O)c4ccn(S(C)(=O)=O)c4)n3)c2)ccn1 [Compound 441]
–	–	> 0.01	> 0.01	C[C@@H]1CN(c2cccc(-c3csc(NC(=O)[C@H](C)NC(=O)c4ccn(C(C)(C)C)c4)n3)n2)C[C@H](C)O1 [Compound 769]
> 0.01	< 0.01	–	–	CS(=O)(=O)n1ccc(C(=O)NCC(=O)Nc2nc(-c3cccc(N4CC[C@@H](N)[C@H](F)C4)c3)cs2)c1 [Compound 290]
> 0.1	> 0.01	–	–	C[C@@H]1CN(c2cccc(-c3csc(NC(=O)CNC(=O)c4ccn(C5(C(F)(F)F)CC5)c4)n3)n2)C[C@H](C)O1 [Compound 332]
–	–	> 0.01	> 0.01	CC(C)(C)n1ccc(C(=O)NCC(=O)Nc2nc(-c3cccc(-c4cc5n(n4)CCOC5)c3)cs2)c1 [Compound 415]
–	–	> 0.1	> 0.01	CC(C)(C)n1ccc(C(=O)NCC(=O)Nc2nc(-c3cccc(N4CC[C@H](F)C4)n3)cs2)c1 [Compound 690]
–	–	> 0.01	> 0.01	CS(=O)(=O)n1ccc(C(=O)NCC(=O)Nc2nc(-c3cccc(OCC4(F)COC4)c3)cs2)c1 [Compound 502]
–	–	> 0.01	> 0.01	CC(C)(C)n1ccc(C(=O)NCC(=O)Nc2nc(-c3cccc(N4CCC5(COC5)C4)n3)cs2)c1 [Compound 620]
